{
  "source": "patent US11672799B2",
  "about": "“1,4-disubstituted pyridazine quinolne analogs there of and methods for treating SMN-deficiency-related conditions” (Novartis AG, priority 2013, dated 2023)",
  "key": {"SMN2 Full reporter": {"system": "SMN2 Full reporter", "experiment": "SMN2 Full reporter gene assay (luciferase) in NSC34 stable line", "assay_type": "cell-based", "conditions": "NSC-34, Biological Example 2, 24 hours, BrightGlo, read-out: SMN Activity (EC50)", "excerpt": "SMN2 Full Reporter Construct:\npSMN2 Splicing Luciferase reporter was constructed according to Zhang et al., (An in vivo reporter system for measuring increased inclusion of exon 7 in SMN2 mRNA: potential therapy of SMA. Gene Ther. 2001 October; 8(20):1532-8) via overlapping PCR. The final PCR fragment containing Exon6-Intron6-Exon7 (with a C insertion before 49T)-Intron7-Exon8-Luciferase was inserted to BamHI and NotI site of pCAG-IRESblast expression vector (Chen et al., Establishment and Maintenance of Genomic Methylation Patterns in Mouse Embryonic Stem Cells by Dnmt3a and Dnmt3b. Mol Cell Biol. 2003 August; 23(16):5594-605).\nHuman SMN2 exon1-exon6 cDNA were amplified by PCR (Forward primer: […]; reverse primer: […]), and Exon6-Intron6 (Forward primer: […]; reverse primer: […]) were fused by overlap PCR to create Exon1-Intron6 fragment, and was inserted into pSMN2 splicing Luciferase reporter via BamHI and HindIII sites to create pSMN2 exon1-6 splicing reporter. SMN2 promoter 5.1 kb fragment was amplified from human genomic DNA by PCR (Forward primer: […]; reverse primer: […]), and inserted between MluI site and BamHI site (Blunted using DNA blunting kit, Takara, Cat #6025) of pSMN2 exon1-6 splicing reporter to replace chicken β-actin promoter and the human cytomegalovirus immediate early enhancer, to finalize the pSMN2-Full-reporter.\nSMN2 Full Reporter Stable Clone in NSC34 Cells:\npSMN2-Full reporter was stably transfected into NSC34 cells using Lipofectamine 2000, which were subsequently selected in blasticidin-containing medium for two weeks. Blasticidin-resistant colonies were screened by Luciferase signal and response to SAHA as well as by RT-PCR for alternative splicing of Exon7.\nNSC34 SMN2 Full reporter stable line was cultured in DMEM (Invitrogen, Cat:11965)+10% FBS+7 μg/ml Blasticidin. Cells in culture media without Blasticidin were seeded into a 384-well plate at a density of 6000 cells/well and treated with compounds for 24 hours. Luciferase signal was assessed by BrightGlo assay. Eequal volume of BrightGlo reagent (Promega, Cat #E2620) was added to the cells and incubated for 10 minutes at room temperature. Luminescent signal was read in either BioTek or Envision plate reader.\nReporter gene assay conditions: compound concentration range 3 nM-10 uM."}, "SMN protein": {"system": "SMN protein", "experiment": "cellular SMN ELISA (SMN protein elevation) in myoblast cell line from SMNdelta7 mouse model", "assay_type": "cell-based", "procedure,_shortened": "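SMNdelta7 mouse myoblasts were treated with compounds for 24 h (20 nM–10 uM or 100 pM–10 uM), lysed in modified RIPA buffer, and SMN quantified by sandwich ELISA with HRP/TMB read at 450 nm. Values are fold activation over DMSO control and EC50.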"}, "[1]": {"conditions": "comparison of unsubstituted, ortho-hydroxy and ortho-alkoxy pyridazines, as in Biological Example 1"}, "[2]": {"conditions": "comparison of unsubstituted, ortho-hydroxy and ortho-alkoxy pyridazines, as in Biological Example 1, read-out: SMN ELISA EC50"}},
  "note": "Read-outs that look alike come from different tables or passages of the source.",
  "data": [
    {"molecule": "Cc1cc2cc(O)c(-c3ccc(N(C)C4CC(C)(C)NC(C)(C)C4)nn3)cc2c(C)n1", "note": "[Example 29-3, 1,3-dimethyl-7-(6-(methyl(2,2,6,6-tetramethylpiperidin-4-yl)amino)pyridazin-3-yl)isoquinolin-6-ol]", "values": [
      {"measurement": "EC50", "setting": "SMN2 Full reporter", "value": 40, "unit": "nM"}
    ]},
    {"molecule": "Cc1cc2cc(-c3ccc(N(C)C4CC(C)(C)NC(C)(C)C4)nn3)c(O)cc2c(C#N)n1", "note": "[Example 30-1, 7-hydroxy-3-methyl-6-(6-(methyl(2,2,6,6-tetramethylpiperidin-4-yl)amino)pyridazin-3-yl)isoquinoline-1-carbonitrile]", "values": [
      {"measurement": "EC50", "setting": "SMN2 Full reporter", "value": 30, "unit": "nM"}
    ]},
    {"molecule": "CN(c1ccc(-c2cc3c(N)nccc3cc2O)nn1)C1CC(C)(C)NC(C)(C)C1", "note": "[Example 31-1, 1-amino-7-(6-(methyl(2,2,6,6-tetramethylpiperidin-4-yl)amino)pyridazin-3-yl)isoquinolin-6-ol]", "values": [
      {"measurement": "EC50", "setting": "SMN2 Full reporter", "value": 25, "unit": "nM"}
    ]},
    {"molecule": "CN(c1ccc(-c2cc3c(=O)n(C)c(=O)n(C)c3cc2O)nn1)C1CC(C)(C)NC(C)(C)C1", "note": "[Example 32-1, 7-hydroxy-1,3-dimethyl-6-(6-(methyl(2,2,6,6-tetramethylpiperidin-4-yl)amino)pyridazin-3-yl)quinazoline-2,4(1H,3H)-dione]", "values": [
      {"measurement": "EC50", "setting": "SMN2 Full reporter", "value": 133, "unit": "nM"}
    ]},
    {"molecule": "CN(c1ccc(-c2cc3[nH]c(=O)oc3cc2O)nn1)C1CC(C)(C)NC(C)(C)C1", "note": "[Example 33-1, 6-hydroxy-5-(6-(methyl(2,2,6,6-tetramethylpiperidin-4-yl)amino)pyridazin-3-yl)benzo[d]oxazol-2(3H)-one]", "values": [
      {"measurement": "EC50", "setting": "SMN2 Full reporter", "value": 3000, "unit": "nM"}
    ]},
    {"molecule": "CN(c1ccc(-c2cc3cn(C)nc3cc2O)nn1)C1CC(C)(C)NC(C)(C)C1", "note": "[Example 34-1, 2-methyl-5-(6-(methyl(2,2,6,6-tetramethylpiperidin-4-yl)amino)pyridazin-3-yl)-2H-indazol-6-ol]", "values": [
      {"measurement": "EC50", "setting": "SMN2 Full reporter", "value": 150, "unit": "nM"}
    ]},
    {"molecule": "CN(c1ccc(-c2cc3cnn(C)c3cc2O)nn1)C1CC(C)(C)NC(C)(C)C1", "note": "[Example 34-2, 1-methyl-5-(6-(methyl(2,2,6,6-tetramethylpiperidin-4-yl)amino)pyridazin-3-yl)-1H-indazol-6-ol]", "values": [
      {"measurement": "EC50", "setting": "SMN2 Full reporter", "value": 220, "unit": "nM"}
    ]},
    {"molecule": "CCn1ccc2cc(O)c(-c3ccc(OC4CC(C)(C)NC(C)(C)C4)nn3)cc2c1=O", "note": "[Example 35-2, 2-ethyl-6-hydroxy-7-(6-((2,2,6,6-tetramethylpiperidin-4-yl)oxy)pyridazin-3-yl)isoquinolin-1(2H)-one]", "values": [
      {"measurement": "EC50", "setting": "SMN2 Full reporter", "value": 363, "unit": "nM"}
    ]},
    {"molecule": "CN(c1ccc(-c2cc3cnc(C4CC4)cc3cc2O)nn1)C1CC(C)(C)NC(C)(C)C1", "note": "[Example 36-3, 3-cyclopropyl-7-(6-(methyl(2,2,6,6-tetramethyl-piperidin-4-yl)amino)pyridazin-3-yl)isoquinolin-6-ol]", "values": [
      {"measurement": "EC50", "setting": "SMN2 Full reporter", "value": 30, "unit": "nM"}
    ]},
    {"molecule": "CC(C)c1cc2cc(O)c(-c3ccc(N(C)C4CC(C)(C)NC(C)(C)C4)nn3)cc2cn1", "note": "[Example 36-4, 3-isopropyl-7-(6-(methyl(2,2,6,6-tetramethyl-piperidin-4-yl)amino)pyridazin-3-yl)isoquinolin-6-ol]", "values": [
      {"measurement": "EC50", "setting": "SMN2 Full reporter", "value": 190, "unit": "nM"}
    ]},
    {"molecule": "CCCc1cc2cc(O)c(-c3ccc(OC4CC(C)(C)NC(C)(C)C4)nn3)cc2cn1", "note": "[Example 36-5, 3-propyl-7-(6-((2,2,6,6-tetramethylpiperidin-4-yl)oxy)-pyridazin-3-yl)isoquinolin-6-ol]", "values": [
      {"measurement": "EC50", "setting": "SMN2 Full reporter", "value": 580, "unit": "nM"}
    ]},
    {"molecule": "CC(C)c1cc2cc(O)c(-c3ccc(OC4CC(C)(C)NC(C)(C)C4)nn3)cc2cn1", "note": "[Example 36-6, 3-isopropyl-7-(6-((2,2,6,6-tetramethylpiperidin-4-yl)oxy)-pyridazin-3-yl)isoquinolin-6-ol]", "values": [
      {"measurement": "EC50", "setting": "SMN2 Full reporter", "value": 640, "unit": "nM"}
    ]},
    {"molecule": "CN(c1ccc(-c2cc3nccc(Cl)c3cc2O)nn1)C1CC(C)(C)NC(C)(C)C1", "note": "[Preparation 13, 4-chloro-7-(6-(methyl(2,2,6,6-tetramethylpiperidin-4-yl)amino)pyridazin-3-yl)quinolin-6-ol]", "values": [
      {"measurement": "SMN Activity (fold activation over DMSO control)", "setting": "SMN protein; Biological Example 1, SMN ELISA, SMNdelta7 mouse myoblasts, 24 hours compound treatment", "value": 2.6, "unit": "fold"},
      {"measurement": "EC50", "setting": "SMN protein; Biological Example 1, SMN ELISA, SMNdelta7 mouse myoblasts, 24 hours compound treatment, read-out: SMN Activity (EC50)", "value": 7, "unit": "nM"}
    ]},
    {"molecule": "CN(c1ccc(-c2ccc3ncccc3c2)nn1)C1CC(C)(C)NC(C)(C)C1", "note": "[drawing 135 R = H]", "values": [
      {"measurement": "Fold activation", "setting": "SMN protein; [1]", "value": 2.2},
      {"measurement": "EC50", "setting": "SMN protein; [2]", "value": 660, "unit": "nM"}
    ]},
    {"molecule": "CN(c1ccc(-c2ccc3cccnc3c2)nn1)C1CC(C)(C)NC(C)(C)C1", "note": "[drawing 136 R = H]", "values": [
      {"measurement": "Fold activation", "setting": "SMN protein; [1]", "value": 2.5},
      {"measurement": "EC50", "setting": "SMN protein; [2]", "value": 370, "unit": "nM"}
    ]},
    {"molecule": "COc1cc2cccnc2cc1-c1ccc(N(C)C2CC(C)(C)NC(C)(C)C2)nn1", "note": "[drawing 136 R = OMe, 6-(6-Methoxyquinolin-7-yl)-N-methyl-N-(2,2,6,6-tetramethylpiperidin-4-yl)pyridazin-3-amine]", "values": [
      {"measurement": "Fold activation", "setting": "SMN protein; [1]", "value": 1.7},
      {"measurement": "EC50", "setting": "SMN protein; [2]", "value": 1170, "unit": "nM"}
    ]},
    {"molecule": "CN(c1ccc(-c2ccc3ccncc3c2)nn1)C1CC(C)(C)NC(C)(C)C1", "note": "[drawing 137 R = H]", "values": [
      {"measurement": "Fold activation", "setting": "SMN protein; [1]", "value": 2.7},
      {"measurement": "EC50", "setting": "SMN protein; [2]", "value": 250, "unit": "nM"}
    ]},
    {"molecule": "CN(c1ccc(-c2ccc3cnccc3c2)nn1)C1CC(C)(C)NC(C)(C)C1", "note": "[drawing 138 R = H]", "values": [
      {"measurement": "Fold activation", "setting": "SMN protein; [1]", "value": 2.7},
      {"measurement": "EC50", "setting": "SMN protein; [2]", "value": 320, "unit": "nM"}
    ]},
    {"molecule": "CCOc1cc2nccnc2cc1-c1ccc(N(C)C2CC(C)(C)NC(C)(C)C2)nn1", "note": "[drawing 139 R = OEt, 6-(7-Ethoxyquinoxalin-6-yl)-N-methyl-N-(2,2,6,6-tetramethylpiperidin-4-yl)pyridazin-3-amine]", "values": [
      {"measurement": "SMN ELISA EC50", "setting": "SMN protein; [1]", "value": "Inactive"}
    ]}
  ]
}
